{"source": "patent US20250161245A1", "about": "“A MIXTURE OF UREA, BIURET AND N-CONTAINING BY-PRODUCTS CREATED DURING BIURET PRODUCTION AS A DIETARY NON-PROTEIN NITROGEN-SOURCE FOR RUMINANTS AND USES THEREOF” (Yara International ASA, priority 2022, published 2025)", "key": {"[1]": {"assay": "animal performance of steers with NPN supplementation (Example 3)", "assay_type": "in vivo, crossbred yearling steers", "description": "A total of 72 crossbred yearling steers [303 kg±29 kg initial body weight (BW) were stratified by body weight (BW) and randomly allocated to three treatments. All steers consumed a basal diet of corn silage, cotton-gin trash, and a premix of vitamins and minerals.\nThe steers were housed in pens (8 steers/pen, 3 pens/treatment). The steers were supplemented with two different NPN-sources on an isonitrogenous basis, considering as reference the N provided by urea when included at 1 wt. % of the diet in dry matter (DM) basis.\nIn Table 5, the composition of the basal diet supplemented with two different types of NPN, i.e. urea (Urea) (46% N) and a mixture of urea and biuret according to the present disclosure (UB), with composition as in example 1 (41% N) is shown.\nThe gain to feed ratio (G:F) was computed as the ratio of the average daily gain (ADG) to daily dry matter intake (DMI). The feed intake was recorded daily. The individual intake was determined via the GrowSafe® intake monitoring system. In cattle management, GrowSafe Systems is a commonly used tool to closely monitor individual animal feeding data using radio frequency identification (RFID) tag technology. The animals are equipped with a unique RFID tag that is read by the feed bunks each time the animal lowers its head into the bunk to consume feed. Average daily weight gain (ADG) and feed efficiency were calculated during the performance evaluation. The ADG was determined by the difference between the final BW and the initial BW divided by the number of days of the performance evaluation (56 days). The initial BW was calculated as the average unshrunk BW of […] on days 16 and 17. The final BW was the average unshrunk BW measured on days 72 and 73. The unshrunk BW was obtained every 14 days."}, "rumen microbes": {"tested_on": "rumen microbes", "assay": "microbial protein synthesis, 15N batch culture (Example 4)", "assay_type": "cell-based, Angus crossbred steers", "conditions": "24 hours of incubation", "protocol": "The in vitro incubations were conducted on three separate days (replicates). A representative sample of digesta was collected from different places in the rumen of ruminally cannulated steers and strained through 4 layers of cheesecloth, placed in pre-warmed thermos containers, and transported to the laboratory within 30 minutes after the collection. In the laboratory, the ruminal fluid from the two steers was maintained under constant CO2-flux and was combined in equal proportions. This combined ruminal fluid was mixed with McDougall's buffer (McDougall, 1948) with and without 0.077 g/liter of 10 wt. % ammonium sulfate enriched with ^15N in relation 1:4, and it was used as an inoculum. Two bottles of 500 ml fitted with a side arm and a rubber septum were incubated per treatment. […] At the end of the 24 hours incubation, the final pH was recorded, the bottles were placed on ice to prevent further microbial fermentation and two 10-ml samples were collected and acidified by adding 20 μl of a 20 vol/vol % of H2SO4-solution and were frozen at minus 20° C. until further analysis. […]\nThe total nitrogen (N) and the isotopic supplement were measured in the whole content and the bacterial pellet by an isotopic ratio mass spectrometry using a Vario Micro cube from Elementar Analyzer System GmbH. […]"}}}
{"compound": "NC(N)=O", "note": "[Urea, urea]", "values": [{"measurement": "DMI", "setting": "[1]; days 0-14", "result": 6.82, "unit": "kg/day"}, {"measurement": "G:F", "setting": "[1]; days 0-14", "result": 0.10, "unit": "kg/kg"}, {"measurement": "DMI", "setting": "[1]; days 0-28", "result": 7.03, "unit": "kg/day"}, {"measurement": "G:F", "setting": "[1]; days 0-28", "result": 0.11, "unit": "kg/kg"}, {"measurement": "DMI", "setting": "[1]; days 0-42", "result": 7.24, "unit": "kg/day"}, {"measurement": "G:F", "setting": "[1]; days 0-42", "result": 0.14, "unit": "kg/kg"}, {"measurement": "ADG", "setting": "[1]; days 0-56", "result": 1.01, "unit": "kg"}, {"measurement": "DMI", "setting": "[1]; days 0-56", "result": 7.29, "unit": "kg/day"}, {"measurement": "G:F", "setting": "[1]; days 0-56", "result": 0.14, "unit": "kg/kg"}, {"measurement": "DMI (% of BW)", "setting": "[1]; steers", "result": "2.31 % of BW"}, {"measurement": "NEg", "setting": "[1]; steers", "result": "0.55 Mcal/kg of DM"}, {"measurement": "Initial BW", "setting": "[1]; steers, baseline, NPN 1.00 wt. % urea or 1.12 wt. % UB of diet DM", "result": 288.69, "unit": "kg"}, {"measurement": "Final BW", "setting": "[1]; steers, end of 56 days performance evaluation", "result": 343.69, "unit": "kg"}, {"measurement": "Bacteria N", "setting": "rumen microbes", "result": 67.34, "unit": "mg"}, {"measurement": "EMPS", "setting": "rumen microbes", "result": "34.46 g of bacteria N/kg of OM truly digested"}]}
